Earlier results on one compound are cited in patent US6184241A, “Aspartic protease inhibitors” (Kansas State University Research Foundation, priority 1998, dated 2001).

For the data set the following is noted: heterocyclic ring.

On to `c1c[nH]cn1` [imidazole], for which the pKa is reported as 6.0-7.0.
